In the supplement of paper PMC10331698:
± gives the standard deviation of the averaged measurements.

Key:
Assay in all cases: level (log10 ratio to DMSO vehicle control); higher = higher biomarker level / cell amount than vehicle control
Details in all cases: in DMSO
[1] = compound: OCC(F)(F)C(F)(F)C(F)(F)C(F)(F)C(F)(F)C(F)F [1H,1H,7H-Dodecafluoro-1-heptanol]
Protocol: (§1)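 BioMAP Diversity Plus panel of 12 human primary cell co-culture systems (3C, 4H, LPS, SAg, BT, BF4T, BE3C, CASM3C, HDF3CGF, KF3CT, MyoF, Mphg). Compounds were added 1 h before stimulation and left for 24 h (MyoF 48 h; BT 72 h for soluble read-outs or 6 d for IgG). Biomarkers were read by ELISA, cytotoxicity by SRB, PBMC viability and proliferation by Alamar Blue. Each well value was divided by the mean of 8 DMSO control wells on the same plate and log10 transformed; duplicate blinded samples were tested at 4 concentrations.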

[2] = compound: O=P(O)(O)CCC(F)(F)C(F)(F)C(F)(F)C(F)(F)C(F)(F)C(F)(F)C(F)(F)C(F)(F)F [((Perfluorooctyl)ethyl)phosphonic acid]
Protocol: as §1

Hexafluoroglutaric acid = compound: O=C(O)C(F)(F)C(F)(F)C(F)(F)C(=O)O [Hexafluoroglutaric acid]
Protocol: as §1

[3] = compound: O=C(O)C(F)(F)C(F)(F)C(F)(F)C(F)(F)C(F)(F)C(F)(F)C(F)(F)C(F)(F)C(F)(F)C(F)(F)C(F)(F)C(F)(F)F [Perfluorotridecanoic acid]
Protocol: as §1

[4] = compound: O=C(O)CCC(F)(F)C(F)(F)C(F)(F)F [3:3 Fluorotelomer carboxylic acid]
Protocol: as §1

[5] = compound: O=S(=O)(O)C(F)(F)C(F)(F)C(F)(F)C(F)(F)C(F)(F)C(F)(F)C(F)(F)C(F)(F)F [Potassium perfluorooctanesulfonate]
Protocol: as §1

| Test System | level (log10) ([1]; 6700 nM) | level (log10) ([1]; 20000 nM) | level (log10) ([1]; 60000 nM) | level (log10) ([2]; 6700 nM) | level (log10) ([2]; 20000 nM) | level (log10) ([2]; 60000 nM) | level (log10) (Hexafluoroglutaric acid; 6700 nM) | level (log10) (Hexafluoroglutaric acid; 20000 nM) | level (log10) (Hexafluoroglutaric acid; 60000 nM) | level (log10) ([3]; 1500 nM) | level (log10) ([3]; 4400 nM) | level (log10) ([3]; 13000 nM) | level (log10) ([3]; 40000 nM) | level (log10) ([4]; 6700 nM) | level (log10) ([4]; 20000 nM) | level (log10) ([4]; 60000 nM) | level (log10) ([5]; 6700 nM) | level (log10) ([5]; 20000 nM) | level (log10) ([5]; 60000 nM) |
| --- | --- | --- | --- | --- | --- | --- | --- | --- | --- | --- | --- | --- | --- | --- | --- | --- | --- | --- | --- |
| HDF3CGF:PAI-I | -0.008 ± 0.0085 | -0.004 ± 0.02 | 0.006 ± 0.047 | -0.028 ± 0.035 | -0.101 ± 0.06 | -0.2695 ± 0.0021 | -0.0115 ± 0.016 | -0.007 ± 0.014 | 0.0075 ± 0.021 | 0.063 | 0.0515 ± 0.023 | 0.0505 ± 0.0064 | -0.022 ± 0.027 | -0.006 ± 0.031 | -0.0035 ± 0.023 | 0.0085 ± 0.005 | 0.0485 ± 0.0064 | 0.011 ± 0.021 | -0.181 ± 0.18 |
| CASM3C:CD142/Tissue Factor | 0.0235 ± 0.043 | 0.0015 ± 0.0064 | -0.0185 ± 0.0035 | -0.0235 ± 0.019 | -0.006 ± 0.0099 | 0.046 ± 0.079 | 0.003 ± 0.033 | 0.0015 ± 0.005 | 0.0185 ± 0.021 | -0.004 ± 0.064 | 0.002 ± 0.024 | -0.0025 ± 0.018 | -0.012 ± 0.034 | 0.0015 ± 0.012 | -0.0015 ± 0.013 | -0.0305 ± 0.054 | -0.016 ± 0.041 | -0.014 ± 0.023 | -0.0265 ± 0.029 |
| HDF3CGF:EGFR | -0.004 ± 0.025 | -0.015 ± 0.03 | 0.0075 ± 0.011 | -0.0125 ± 0.016 | -0.045 ± 0.024 | -0.126 ± 0.059 | -0.021 ± 0.061 | -0.0285 ± 0.056 | -0.021 ± 0.072 | 0.0025 ± 0.077 | -0.052 ± 0.025 | -0.0595 ± 0.03 | -0.0175 ± 0.046 | -0.023 ± 0.018 | -0.012 ± 0.024 | -0.003 ± 0.045 | -0.0055 ± 0.019 | -0.0305 ± 0.012 | -0.0905 ± 0.029 |
| lMphg:CXCL8/IL-8 | -0.003 ± 0.013 | 0.017 ± 0.025 | 0.042 ± 0.028 | -0.0105 ± 0.025 | 0.0115 ± 0.028 | 0.148 ± 0.084 | 0.014 ± 0.0042 | 0.044 ± 0.072 | -0.0185 ± 0.0021 | -0.0575 ± 0.0021 | -0.0665 ± 0.012 | -0.0245 ± 0.00071 | -0.0175 ± 0.021 | -0.0215 ± 0.059 | -0.001 ± 0.051 | 0.025 ± 0.02 | -0.0435 ± 0.005 | 0.0135 ± 0.03 | 0.094 ± 0.0028 |
| CASM3C:IL-6 | -0.0165 ± 0.035 | -0.024 ± 0.021 | 0.008 ± 0.028 | -0.0215 ± 0.06 | -0.004 ± 0.025 | 0.0865 ± 0.032 | -0.0175 ± 0.0035 | -0.015 ± 0.021 | 0.022 ± 0.082 | 0.005 ± 0.062 | -0.047 ± 0.0028 | -0.059 ± 0.028 | -0.0815 ± 0.08 | -0.029 ± 0.016 | -0.0295 ± 0.015 | 0.0085 ± 0.018 | -0.025 ± 0.0042 | -0.0285 ± 0.016 | -0.0425 ± 0.083 |
